The values below come from patent US20260138970A1, “MODULATORS OF THE CALCIUM SIGNALING CASCADE” (FONDAZIONE TELETHON ETS, priority 2022, published 2026).

Assay type in all cases: cell-based
One assay deals with ITPR. The assay is described as follows: ci-IP3/PM uncaging Ca2+ imaging assay in FRT cells. Conditions: compounds 10 μM; FIG. 4. On the procedure: FRT and HEK293 cells were cultured in μ-Plate96 microplates (Ibidi) at subconfluent condition. Cells were washed 2 times with PBS (150 μl/wash) and then loaded for 45 min at 37° C. with 1 μM ci-IP3/PM (Tocris; catalog number: 6210/10U) and 5 μM Fluo-4/AM (Thermo Fisher Scientific) in PBS containing 10 mM glucose, 0.5 mM sulfinpyrazone and 1% fetal bovine serum. After 45 min, cells were further incubated for 1 h at 37° C. with a fresh PBS solution containing Fluo-4/AM, glucose, sulfinpyrazone, serum, but no ci-IP3/PM. After the second loading, cells were washed 2 times with PBS-glucose-sulfinpyrazone (150 μl/wash) and incubated for 20 min at 37° C. with 125 μl of PBS plus 10 mM glucose and 0.5 mM sulfinpyrazone containing compounds of interest at 10 μM final concentration or vehicle. Each well was assayed individually using an inverted Olympus microscope equipped with 40×oil immersion objective, 530 nm emission filter, Lambda DG4 (Sutter Instrument Co., Novato, CA, USA) illumination system with a 490 nm excitation filter, (Olympus, Segrate, Italy), Prime cmos camera (Photometrics, Tucson, AZ, USA) and MetaFluor imaging acquisition software (Molecular Devices, Sunnyvale, CA, USA). Time-lapse experiments were carried out with 50 ms exposure time, 0.5 s interval and 1.8 min total duration. […] Analysis was performed with MetaFluor software, by quantifying Fluo-4 fluorescence in manually selected single cell region of interest (ROI). Eight cells were selected in each field to generate an average trace. After background subtraction, fluorescence traces were normalized for the initial value.

The next assay addresses T1, T267M ITPR1 (Homo sapiens, UniProt Q14643, T267M).
T1 construct: expressed in transfected cells
As to the kind of experiment: Fluo-4 Ca2+ assay, UTP, HEK293 cells with inducible T267M ITPR1. To be noted: UTP 5 μM; compound 10 μM; tetracycline-induced; FIG. 6B-C. On the procedure: HEK293 cells stably transfected with tetracycline-inducible expression of wild type or mutant (R269W or T267M) ITPR1, kindly provided by Prof. S. R. Wayne Chen (University of Calgary; ref. 14), were cultured in a mixture of Dulbecco's Modified Eagle Medium (DMEM, high glucose version) and Ham's F12 (1:1) and supplemented with 10% fetal bovine serum, 2 mM L-glutamine, 100 U/ml penicillin and 100 μg/ml streptomycin. Cells were selected with 0.5 mg/ml hygromycin B and induced with 1 μg/ml tetracycline.
(§1) Experiments were performed using the microplate reader described for the HS-YFP assay. FRT and HEK293 cells were cultured until confluence in 96-well microplates (3603, Corning). Cells were washed 2 times with PBS (150 μl/wash) and then loaded for 1 h at 37° C. with 5 μM Fluo-4/AM (Thermo Fisher Scientific; catalog number: F23917) in PBS containing 10 mM glucose, 0.5 mM sulfinpyrazone, and 1% fetal bovine serum. After loading, cells were washed 2 times with PBS-glucose-sulfinpyrazone (150 μl/wash) and incubated for 20 min at 37° C. with 60 μl of PBS plus 10 mM glucose and 0.5 mM sulfinpyrazone containing compounds of interest at 10 μM final concentration or vehicle. Each well was assayed individually. Fluo-4 fluorescence (500 nm excitation, 535 nm emission) was detected every 200 ms for 16-40 s. Two seconds after the start of fluorescence recording, the reader automatically injected 165 μl of a modified PBS containing 136 mM KCl instead of NaCl. This solution also contained 10 mM glucose, 0.5 mM sulfinpyrazone, and UTP or SLIGR-NH2 (CAS #171436-38-7) at a final concentration that depended on the specific cell type. For UTP we used: 0.25 μM for FRT; 1 μM for HEKR2; 5 μM for HEK3XKO, HEKR1, and HEKR3. For SLIGR-NH2 we used: 10 μM for HEKR1; 4 μM for HEKR2. These concentrations were chosen to elicit ˜20% of maximal effect based on UTP and SLIGR-NH2 dose-response relationships. […] The Fluo-4 fluorescence increase was quantified using a procedure compiled in Microsoft Excel after background subtraction and normalization for the initial value measured before UTP addition.

The next assay deals with T2, ITPR2 (Homo sapiens, UniProt Q14571).
T2 construct: host or cells: HEKR2 (HEK293)
As to the kind of experiment: Fluo-4 Ca2+ assay, UTP, HEK293 cells with selective expression of ITPR2 (HEKR2). Conditions: compounds 10 μM; UTP 1 μM; FIG. 2C. As to the method:
HEK293 cells totally devoid of ITPR expression (HEK3XKO) or with selective expression of ITPR1 (HEKR1), ITPR2 (HEKR2), or ITPR3 (HEKR3), obtained by selective gene ablation, were purchased from Kerafast (catalog number: EURO30, EURO31, EURO32, EURO33) and cultured in a mixture of Dulbecco's Modified Eagle Medium (DMEM, high glucose version) and Ham's F12 (1:1) and supplemented with 10% fetal bovine serum, 2 mM L-glutamine, 100 U/ml penicillin and 100 μg/ml streptomycin.
as §1

Another assay has as its system PLC. The assay is described as follows: PLC assay in FRT cells expressing PH-PLC-GFP sensor. To be noted: compounds 10 μM, cytosolic GFP increase, FIG. 3; for potentiation of UTP effect on PLC activity, lower UTP concentration: UTP 0.25 μM; for potentiation of UTP effect on PLC activity, higher UTP concentration: UTP 100 μM. On the procedure: FRT cells with stable expression of PLC6-PH-GFP, generated in the laboratory of inventors, were cultured up to subconfluent condition in p-Plate96 microplates (Ibidi). Each well of a 96-well microplate was washed 3 times, leaving 125 μl of phosphate-buffered saline (PBS) containing compounds at 10 μM final concentration or vehicle. After 20 min of incubation at 37° C., microplate was moved on the stage of an inverted microscope equipped with GFP excitation/emission filters, 40×oil immersion objective (Olympus, Segrate, Italy), Lambda DG4 illumination system (Sutter Instrument Co., Novato, CA, USA), Prime cmos camera (Photometrics, Tucson, AZ, USA) and MetaMorph imaging acquisition software (Molecular Devices, Sunnyvale, CA, USA). Time-lapse experiments were carried out with 50 ms exposure time, 20 frame/s rate, and 2.4 min total duration. After 20 s and 90 s, UTP 0.25 μM and 100 μM (final concentrations) was respectively added. Analysis was performed with MetaMorph software, by quantifying GFP fluorescence cytoplasmic accumulation in manually selected single cell regions of interest (ROI). After background subtraction, fluorescence recordings were normalized for the initial value.

T2 sequence (Q14571 whole entry): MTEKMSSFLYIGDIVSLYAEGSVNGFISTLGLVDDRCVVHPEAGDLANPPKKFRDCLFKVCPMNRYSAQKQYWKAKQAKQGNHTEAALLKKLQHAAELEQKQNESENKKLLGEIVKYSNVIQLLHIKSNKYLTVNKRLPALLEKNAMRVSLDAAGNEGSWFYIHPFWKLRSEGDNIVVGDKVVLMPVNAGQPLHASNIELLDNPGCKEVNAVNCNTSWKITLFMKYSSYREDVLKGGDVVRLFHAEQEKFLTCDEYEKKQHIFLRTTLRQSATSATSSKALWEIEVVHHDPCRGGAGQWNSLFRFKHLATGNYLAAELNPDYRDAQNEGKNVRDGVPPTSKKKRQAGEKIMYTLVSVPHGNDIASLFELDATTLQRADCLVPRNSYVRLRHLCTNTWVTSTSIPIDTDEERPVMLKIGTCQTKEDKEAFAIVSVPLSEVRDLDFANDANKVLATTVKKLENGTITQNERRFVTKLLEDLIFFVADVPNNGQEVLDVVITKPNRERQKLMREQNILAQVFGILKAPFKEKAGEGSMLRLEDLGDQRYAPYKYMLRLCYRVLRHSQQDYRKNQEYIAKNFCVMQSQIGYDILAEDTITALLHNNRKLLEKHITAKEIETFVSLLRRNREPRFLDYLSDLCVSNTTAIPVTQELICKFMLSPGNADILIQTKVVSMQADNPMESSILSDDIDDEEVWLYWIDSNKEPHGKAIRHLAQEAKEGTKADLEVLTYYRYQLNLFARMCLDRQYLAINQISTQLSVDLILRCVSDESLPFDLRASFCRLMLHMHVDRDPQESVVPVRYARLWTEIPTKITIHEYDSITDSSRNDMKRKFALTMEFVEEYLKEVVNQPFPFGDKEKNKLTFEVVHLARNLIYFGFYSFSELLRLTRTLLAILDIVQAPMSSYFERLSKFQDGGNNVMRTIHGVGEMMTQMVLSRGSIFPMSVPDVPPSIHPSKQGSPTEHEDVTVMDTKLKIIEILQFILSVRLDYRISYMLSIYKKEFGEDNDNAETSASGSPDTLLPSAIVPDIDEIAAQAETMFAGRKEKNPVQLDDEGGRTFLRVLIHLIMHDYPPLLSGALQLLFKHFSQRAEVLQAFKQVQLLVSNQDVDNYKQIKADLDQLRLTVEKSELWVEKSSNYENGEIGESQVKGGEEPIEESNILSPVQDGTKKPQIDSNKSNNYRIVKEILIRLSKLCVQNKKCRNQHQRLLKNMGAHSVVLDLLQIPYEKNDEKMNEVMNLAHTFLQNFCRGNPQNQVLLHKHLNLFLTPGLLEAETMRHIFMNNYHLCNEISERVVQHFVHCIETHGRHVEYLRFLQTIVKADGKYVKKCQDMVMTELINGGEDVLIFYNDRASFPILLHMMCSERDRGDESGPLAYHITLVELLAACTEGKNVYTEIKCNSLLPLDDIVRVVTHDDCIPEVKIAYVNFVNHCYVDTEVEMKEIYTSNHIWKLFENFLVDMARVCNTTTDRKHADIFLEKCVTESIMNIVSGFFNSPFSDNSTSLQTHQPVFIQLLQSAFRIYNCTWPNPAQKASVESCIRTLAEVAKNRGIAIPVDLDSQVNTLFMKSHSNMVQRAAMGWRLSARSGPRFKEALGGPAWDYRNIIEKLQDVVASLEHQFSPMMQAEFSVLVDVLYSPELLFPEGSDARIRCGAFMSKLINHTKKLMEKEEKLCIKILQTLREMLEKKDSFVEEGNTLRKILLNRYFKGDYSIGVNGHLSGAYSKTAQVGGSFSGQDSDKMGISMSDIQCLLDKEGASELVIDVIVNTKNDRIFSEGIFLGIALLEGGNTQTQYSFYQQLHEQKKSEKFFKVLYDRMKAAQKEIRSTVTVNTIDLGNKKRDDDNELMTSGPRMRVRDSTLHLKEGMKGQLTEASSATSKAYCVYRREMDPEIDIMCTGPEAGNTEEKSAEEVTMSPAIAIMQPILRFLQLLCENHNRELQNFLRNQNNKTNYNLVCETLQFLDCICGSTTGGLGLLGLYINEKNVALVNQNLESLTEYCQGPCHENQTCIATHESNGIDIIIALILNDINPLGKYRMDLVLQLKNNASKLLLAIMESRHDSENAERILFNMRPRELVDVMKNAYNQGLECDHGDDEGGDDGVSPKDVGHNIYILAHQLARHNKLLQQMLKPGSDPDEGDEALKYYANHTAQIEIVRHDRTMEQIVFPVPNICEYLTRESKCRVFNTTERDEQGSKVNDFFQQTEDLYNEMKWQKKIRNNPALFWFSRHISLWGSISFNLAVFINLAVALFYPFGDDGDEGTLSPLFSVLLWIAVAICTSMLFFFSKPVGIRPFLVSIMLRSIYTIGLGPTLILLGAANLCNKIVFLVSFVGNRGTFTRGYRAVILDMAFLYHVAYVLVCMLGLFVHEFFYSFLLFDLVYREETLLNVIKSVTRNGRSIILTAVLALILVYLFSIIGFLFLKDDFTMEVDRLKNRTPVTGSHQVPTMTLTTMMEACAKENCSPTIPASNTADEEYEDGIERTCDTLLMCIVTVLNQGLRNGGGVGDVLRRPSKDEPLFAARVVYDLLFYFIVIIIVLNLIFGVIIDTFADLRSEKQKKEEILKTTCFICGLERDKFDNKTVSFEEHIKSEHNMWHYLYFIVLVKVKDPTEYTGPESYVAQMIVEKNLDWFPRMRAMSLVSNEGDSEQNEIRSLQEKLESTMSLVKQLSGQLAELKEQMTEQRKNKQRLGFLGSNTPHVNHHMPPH

`OCc1ccccc1CN(Cc1ccnc(N2CCCC2)n1)c1ccc(F)cc1` [ARN4550, [2-[[4-Fluoro-N-[(2-pyrrolidin-1-ylpyrimidin-4-yl)methyl]anilino]methyl]phenyl]methanol]: the “activity on Ca2+ mobilization by IP3 uncaging, FRT cells” value in the assay on ITPR is “inactive”. Further, on T267M ITPR1, the “potentiation of Ca2+ mobilization elicited by UTP, T267M mutant” value was “also effective although less than ARN11391”. The “potentiation of UTP-elicited Ca2+ increase, ITPR2-only cells” value on ITPR2 is given as “always effective”. In addition, in the assay with PLC, the “potentiation of UTP effect on PLC activity, lower UTP concentration” value was “significantly potentiated” and the “potentiation of UTP effect on PLC activity, higher UTP concentration” value is on record as “effective”.
The matching figures for `CCc1cc(-c2cc(NCCCOc3ccccc3C)nc(N)n2)n(C)n1` [ARN7149, 6-(3-Ethyl-1-methyl-1H-pyrazol-5-yl)-N^4-(3-(o-tolyloxy)propyl)pyrimidine-2,4-diamine]: “inactive”, “also effective although less than ARN11391”, “always effective”, “significantly potentiated” and “effective”.
Turning to `CCn1nc2c(c1C(=O)Nc1ccccc1OCC1CCCCO1)CCCC2` (centres unmarked) [ARN11391, 2-Ethyl-N-[2-(tetrahydropyran-2-ylmethoxy)phenyl]-4,5,6,7-tetrahydroindazole-3-carboxamide], the “activity on Ca2+ mobilization by IP3 uncaging, FRT cells” value in the assay on ITPR was “showed activity”. Besides, the “potentiation of Ca2+ mobilization elicited by UTP, T267M mutant” value on T267M ITPR1 was “marked potentiation”. Further, the “potentiation of UTP-elicited Ca2+ increase, ITPR2-only cells” value on ITPR2 is recorded as “only effective in cells with ITPR1”. For the same molecule, the “potentiation of UTP effect on PLC activity, higher UTP concentration” value in the assay on PLC was “effective”.
